Earlier results as cited in patent publication US10772813B2, “Compositions and methods of administering a colchicine based topical composition for the prevention of radiation fibrosis” (Colradel, LLC, priority 2016, dated 2020).
Entries after “also recorded” stand apart in the source; their conditions may differ.

Tests used:
[1] = test system: radiation-induced fibrosis; settings: single agent, oral
fibroblasts = settings: low doses
[2] = topical vs high oral doses

With `CC(=O)CCCCn1c(=O)c2c(ncn2C)n(C)c1=O` [pentoxifylline, 3,7-dimethyl-1-5-(5-oxohexyl)-xanthine] as the compound, how does the “improvement in late radiation-induced fibrosis” value [1] read?
The value was “significant improvement”.

With `COc1cc2c(c(OC)c1OC)-c1ccc(OC)c(=O)cc1[C@@H](NC(C)=O)CC2` [colchicine] as the compound, how does the “concentration in the skin / dermis” value (0.2% colchicine ointment compared with 0.5%) read?
The value was “same concentration in the dermis 0.5%; also recorded: the same concentration in the skin as 0.5%”.

What about the side effects (0.2% formulation (0.2 gram in 100 ml), transdermal ointment) of the same compound?
The side effects was “no side effects”.

And the transdermal absorption (ointment, treatment of gout)?
The transdermal absorption was “well-absorbed transdermally”.

And the “inhibition of fibroblast migration” value (fibroblasts)?
The value was 93%.

What about the side effects (fibroblasts) of the same compound?
Its side effects is “without any side effects”.

With tocopherol [vitamin E] as the compound, how does the “concentration achievable by topical administration versus high doses orally” value [2] read?
The value was 11 times.
